Experiments:
[1] = Regeneration of tyramine after disulfide cleavage with DTT (GC-MS); assay type: physicochemical; settings: 50 mM DTT in PBS
Procedure: Two tyramine molecules were reacted with DIC in isopropanol, which completely simulates the cross-linking conditions for protein-based particles (FIG. 26). The commercially available disulfide crosslinker DSP was used as a control in this study. The dimer products were denoted as tyramine-DIC and tyramine-DSP, respectively. Both compounds were treated with 50 mM of dithiothreitol (DTT) in phosphate buffer saline (PBS) to cleave the disulfide bond. […] In addition, ^1H-NMR and high-resolution mass spectrometry confirmed the structure of tyramine recovered after DTT treatment of tyram tyramine-DIC. (SI) Therefore, all the aforementioned results support the successful design of the novel DIC crosslinker.
Tyramine (0.24 g, 1.75 mmol) was added to a solution of DIC (0.12 g, 0.35 mmol) in isopropanol (15 mL). The reaction mixture was stirred for 24 h at 40° C. The mixture was concentrated and purified by column chromatography (EtOAc) to give tyramine-DIC ([…]) as light yellow solid. Tyramine (0.24 g, 1.75 mmol) was added to a solution of DSP (0.14 g, 0.35 mmol) in DMF (4 mL). The reaction mixture was stirred for 24 h at 40° C. […] The supernatants from the solutions were collected and analyzed by gas chromatography-mass spectrometry (Alilent Technologies 5975 series MSD, 7820A GC system) and untreated tyramine was used as standard.

[2] = test system: anti-BSA antibody (sandwich ELISA); test: BSA ELISA characterization; assay type: binding; settings: several concentrations over the sampling range
Procedure: Several concentrations were compared over the sampling range of the assays (FIG. 30). […] ELISA relies upon protein-protein interactions, thus providing insight into the preservation of the protein's binding motifs.
The solution was then dialyzed against water for 2 h to remove GSH. […] Absorbance was measured with a SpectraMax M5 plate reader (Molecular Devices) at 450 nm.

Compound: O=C(CCSSCCC(=O)NCCc1ccc(O)cc1)NCCc1ccc(O)cc1 [tyramine-DSP]
- regeneration of tyramine after cleavage of the disulfide bond [1]: No peak of tyramine was observed

Compound: albumin dissolved from the cross-linked particles: BSA released from DIC-cross-linked PRINT BSA particles in PBS with 5 mM glutathione
- absorbance in BSA ELISA compared with native albumin [2]: very similar absorbance

Compound: denatured free protein: heat denatured BSA
- absorbance in BSA ELISA compared with native albumin [2]: significantly less total absorbance
